The subject of assay [1] is rabbit B-cells. Description: rbIgG ELISA of cell culture supernatants of rabbit B-cells co-cultivated with EL-4 B5 feeder cells. It is filed as cell-based. The note with it: for B-cell growth: SAC added to feeder mix. The protocol: (§1) a) The co-cultivation was performed in 96-well multi well plates with round bottom. A basis solution comprising EL-4 B5 cells (1.6×10^6 cells/15.2 ml) and cytokines in EL-4 B5 medium was prepared. 200 μl of the basis solution was added to each well of the multi well plate. To each well a single B-cell was added by fluorescence activated cell sorting. After the addition of the B-cells the plate was centrifuged for 5 min. at 300×g. The plate is incubated for seven days at 37° C.
[…] B cell culture supernatants were removed for screening and the cells harvested immediately for variable region gene cloning or frozen at −80° C. in 100 μl RLT buffer (Qiagen, Hilden, Germany).
(§2) The 96-well multi well plate in which the co-cultivation was performed was centrifuged after seven days of co-cultivation at 300×g for 5 min. 150 μl supernatant was removed and diluted at a ratio of 2:1 with PBS in a second 96-well multi well plate.
The ELISA was performed as outlined in Example 17.
The antibody was used at a concentration of 50 ng/ml. If the OD was or exceeded 1 after an incubation time of 5 min. a dilution series of from 0.8 to 108 ng/ml IgG was tested.
Antibodies produced by single deposited and co-cultivated B-cells or from B-cells obtained from an immunized experimental animal can be characterized with respect to specific antigen binding. The ELISA was performed at room temperature and the ELISA-solution was incubated between the individual steps on a shaker at 20×g. In the first step the antigen was bound to the wells of a 96-well multi well plate. If the antigen was a protein it had been diluted in coating buffer and applied directly to the plate. Peptide antigens were bound via the specific binding pair biotin/streptavidin. The wells of the multi well plate can be already coated with soluble CroteinC (CrC) by the manufacturer. If not, the wells were incubated after the immobilization of the antigen with 200 μl blocking buffer. After the incubation with 100 μl antigen solution per well (pre-coated multi well plate) or 200 μl blocking buffer, respectively, non-bound antigen or blocking buffer was removed by washing with wash buffer. The diluted B-cell supernatants were added in a volume of 100 μl per well and incubated. After the incubation the wells were washed. Afterwards the detection antibody was added in a volume of 100 μl per well. The antibody can be either conjugated to horseradish peroxidase or labeled with biotin. The detection antibody was determined with a streptavidin-horseradish peroxidase conjugate. After the incubation the multi well plate was washed and afterwards 50 μl of a substrate solution containing 3,3′,5,5′ tetramethyl benzidine (TMB) were added per well and incubated for a period as given in Table X. The enzymatic reaction was stopped by the addition of 50 μl sulfuric acid and the optical density was determined at 450 nm and 680 nm with a photometer (Rainbow Thermo ELISA Reader) and the Xread plus-software.
On the technique in general: In an ELISA, binding on a coated surface is turned into a signal by an enzyme label.

Assay [2] deals with hamster B-cells. Kind of assay: Co-cultivation of B-cells with feeder cells and feeder mix additives. It is filed as cell-based. The protocol: as §1, §2
Assay [3] concerns murine B-cells. Described as above. In kind it is cell-based, mouse. The protocol:
as §1, §2

[4] abbreviates: PAP-1 0.01 μM, in the presence of TSN and SAC.
The mark [5] stands for this setting: PAP-1 0.1 μM, in the presence of TSN and SAC.
Where [6] appears, read: PAP-1 1 μM, in the presence of TSN and SAC.
The mark [7] stands for this setting: PAP-1 10 μM, in the presence of TSN and SAC.
The mark [8] stands for this setting: addition of PAP-1 to co-cultivation.
Setting [9] is: SAC 1:20000, Table 8a third block (with w/o control).
[10] abbreviates: SAC 1:50000, Table 8a third block.
The mark [11] stands for this setting: SAC 1:100000, Table 8a third block.
Setting [12] is: SAC 1:150000, Table 8a third block.
The mark [13] stands for this setting: TSN + SAC, SAC 1:5000, Table 8a second block.
Setting [14] is: TSN + SAC, SAC 1:10000, Table 8a second block.
[15] abbreviates: TSN + SAC, SAC 1:20000, Table 8a second block.
Setting [16] is: TSN + SAC, SAC 1:40000, Table 8a second block.

As to `O=c1ccc2c(OCCCCOc3ccccc3)c3ccoc3cc2o1` [PAP-1, 5-(4-phenoxybutoxy) psoralene, reference compound], in assay [1] (setting [4]), the “rbIgG conc. of all huCk^+ wells [average ng/ml]” value (“rbIgG conc. of all huCk^+ wells” for short) came out at 289.0 ng/mL, the “rbIgG^+ wells [% total wells]” value came to 29 % total wells and the “rbIgG^+ wells [n]” value turned out to be 72 n. In addition, in assay [1] (setting [5]), the “rbIgG conc. of all huCk^+ wells” value is 452.9 ng/mL, the “rbIgG^+ wells [% total wells]” value is 27 % total wells and the “rbIgG^+ wells [n]” value came to 69 n. Also, in assay [1] (setting [6]), the “rbIgG conc. of all huCk^+ wells” value turned out to be 579.5 ng/mL, the “rbIgG^+ wells [% total wells]” value is given as 37 % total wells and the “rbIgG^+ wells [n]” value was 93 n. In assay [1] (setting [7]), the “rbIgG conc. of all huCk^+ wells” value worked out at 890.7 ng/mL, the “rbIgG^+ wells [% total wells]” value is reported as 32 % total wells and the “rbIgG^+ wells [n]” value was found to be 80 n. Moreover, in assay [1] (setting [8]), the “effect on number of B-cell clones” value is recorded as “without decreasing the number of B-cell clones” and the “effect on rbIgG secretion of B-cells” value is “increases the rbIgG secretion of B-cells in a concentration dependent manner”.
“IL-6: interleukin-6, cytokine additive of the feeder mix”: the IgG-concentration result in assay [2] (addition of IL-6 to the feeder mix, hamster-B-cells) is “increased IgG-concentration”. In addition, the “number of IgG^+-wells/cell clones” value in assay [3] (addition of IL-6 to the feeder mix, murine-B-cells) is “increased number of IgG^+-wells/cell clones”.
“Staphylococcus aureus strain Cowans cells [SAC]”: the “rbIgG conc. of all rbIgG^+ wells [Ø ng/ml]” value in assay [1] (setting [9]) came out at 665 ng/mL; in assay [1] (setting [10]) it was 742 ng/mL; in assay [1] (setting [11]) it was 774 ng/mL; in assay [1] (setting [12]), 668 ng/mL; in assay [1] (setting [13]), 149.0 ng/mL; in assay [1] (setting [14]), 159.1 ng/mL. Moreover, the “rbIgG conc. of all rbIgG^+ wells [Ø ng/ml]” value in assay [1] (setting [15]) stood at 233.7 ng/mL; in assay [1] (setting [16]), 197.2 ng/mL. The “rbIgG^+ wells [% total wells]” value in assay [1] (setting [9]) came out at 30 % total wells; in assay [1] (setting [10]) it was 37 % total wells; in assay [1] (setting [11]), 37 % total wells; in assay [1] (setting [12]) it was 29 % total wells; in assay [1] (setting [13]), 15 % total wells; in assay [1] (setting [14]) it was 18 % total wells. Moreover, the entries for the “rbIgG^+ wells [% total wells]” value in assay [1] (setting [15]) and in assay [1] (setting [16]) were 32 % total wells and 36 % total wells, respectively. In addition, the “rbIgG^+ wells [n]” value in assay [1] (setting [9]) was determined as 75 n; in assay [1] (setting [10]), 93 n; in assay [1] (setting [11]), 92 n; in assay [1] (setting [12]), 72 n; in assay [1] (setting [13]) it was 13 n; in assay [1] (setting [14]), 15 n. Moreover, the “rbIgG^+ wells [n]” value came out at 27 n in assay [1] (setting [15]) and 30 n in assay [1] (setting [16]). For the same molecule, the B-cell growth entry in assay [1] (PBL (B cells and endogenous T cells) mixture for co-cultivation) is “B-cell growth was inhibited”; in assay [1] (single deposited B-cells), “only single deposited B-cells have a benefit in growth”. Also, the “number of IgG^+-wells/cell clones” value was “increased number of IgG^+-wells/cell clones” in assay [1] (SAC ratio of from 1:20000 to 1:150000) and “highest numbers” in assay [1] (SAC ratio of from 1:50000 to 1:100000). Besides, the “number of antibody secreting B-cells and average IgG-concentration in the supernatant after co-cultivation” value in assay [1] (addition of SAC, single SAC lot) is “can be increased”.

B1: IL-4: interleukin-4, cytokine additive of the feeder mix (protein, UniProt P07750 21-140, looked up)
Interleukin-4: HIHGCDKNHLREIIGILNEVTGEGTPCTEMDVPNVLTATKNTTESELVCRASKVLRIFYLKHGKTPCLKKNSSVLMELQRLFRAFRCLDSSISCTMNESKSTSLKDFLESLKSIMQMDYS
On to B1, for which the “number of IgG^+-wells/cell clones and IgG-concentration in the supernatant” value in assay [2] (addition of IL-4 to the feeder mix, hamster B-cells) is reported as “increases the number of IgG^+-wells/cell clones as well as the IgG-concentration in the supernatant”; in assay [3] (addition of IL-4 to the feeder mix, murine B-cells), “increases the number of IgG^+-wells/cell clones as well as the IgG-concentration in the supernatant”.
